The results in this text go back to US9969738B2, “N-acyl-(3-substituted)-5,6,7,8-tetrahydro-[1,2,4]triazolo[4,3-a]pyrazines as selective NK-3 receptor antagonists, pharmaceutical composition, methods for use in NK-3 receptor-mediated disorders” (EUROSCREEN SA, priority 2013, dated 2018).

Each structure is given as a SMILES string.

One data set concerns the target human NK-1 receptor (Homo sapiens (Human), UniProt P25103). The data set is described as follows: Selectivity assay: [3H] substance P binding to human NK-1 receptor. Conditions: CHO cell membranes, 2 nM [3H] substance P; read-out: hNK-1 (Ki). As for the experimental part: (§1) Selectivity of the compounds of the invention was determined over the other human NK receptors, namely NK-1 and NK-2 receptors.
The affinity of compounds of the invention for the NK-1 receptor was evaluated in CHO recombinant cells which express the human NK-1 receptor. Membrane suspensions were prepared from these cells. The following radioligand: [^3H] substance P (PerkinElmer Cat#NET111520) was used in this assay. Binding assays were performed in a 50 mM Tris/5 mM MnCl2/150 mM NaCl/0.1% BSA at pH 7.4. Binding assays consisted of 25 μl of membrane suspension (approximately 5 μg of protein/well in a 96 well plate), 50 μl of compound or reference ligand (Substance P) at increasing concentrations (diluted in assay buffer) and 2 nM [^3H] substance P. The plate was incubated 60 min at 25° C. in a water bath and then filtered over GF/C filters (Perkin Elmer, 6005174, presoaked in 0.5% PEI for 2 h at room temperature) with a Filtration unit (Perkin Elmer). The radioactivity retained on the filters was measured by using the TopCount-NXT reader (Packard).

The target of data set [1] is T1, human NK-3 receptor (Homo sapiens (Human), UniProt P29371). The data set is described as follows: 3H-SB222200 binding competition assay with human NK-3 receptor. The following applies: CHO cell membranes, 5 nM 3H-SB222200; Ki by Cheng-Prusoff; read-out: hNK-3 (Ki). As for the experimental part: The affinity of compounds of the invention for the human NK-3 receptor was determined by measuring the ability of compounds of the invention to competitively and reversibly displace a well-characterized NK-3 radioligand in a concentration-dependent manner.
^3H-SB222200 Binding Competition Assay with Human NK-3 Receptor
The ability of compounds of the invention to inhibit the binding of the NK-3 receptor selective antagonist ^3H-SB222200 was assessed by an in vitro radioligand binding assay. Membranes were prepared from Chinese hamster ovary recombinant cells stably expressing the human NK-3 receptor. The membranes were incubated with 5 nM ^3H-SB222200 (ARC) in a HEPES 25 mM/NaCl 0.1M/CaCl2 1 mM/MgCl2 5 mM/BSA 0.5%/Saponin 10 μg/ml buffer at pH 7.4 and various concentrations of compounds of the invention. The amount of ^3H-SB222200 bound to the receptor was determined after filtration by the quantification of membrane associated radioactivity using the TopCount-NXT reader (Packard).

The subject of another data set is circulating LH levels. The data set is described as follows: Castrated male rat model, circulating levels of luteinizing hormone (LH), oral dosing. The class given is in vivo. Conditions: castrated male SD rats, single oral dose less than or equal to 30 mg/kg, p<0.05. As for the experimental part:
In Vivo Assay to Assess Compound Activity in Rat (Oral Dosing) The effect of compounds of the invention to inhibit luteinizing hormone (LH) secretion is determined by the following biological studies. Castrated Male Rat Model to Assess the Effect of Compound of Invention on Circulating Levels of Luteinizing Hormone (LH) In humans and rodents, castration is well-precedented to permit heightened, persistent GnRH signaling and consequent elevation of circulating LH. Thus, a castrated rat model is used to provide a broad index for measurement of LH inhibition as a marker of test compound inhibition of the GnRH signaling pathway. Castrated adult male Sprague-Dawley (SD) rats (150-175 g,) were purchased from Janvier (St Berthevin, France). All animals were housed 2 per cage in a temperature-controlled room (22±2° C.) and 50±5% relative humidity with a 12 hour/12 hour light/dark cycles (lights off at 6 h00 pm). The animals were allowed 3 weeks of postoperative recovery prior to study. Animals were handled on a daily basis. Standard diet and tap water were provided ad libitum. Animal cage litters were changed once a week. On the study day, animals were acclimated to the procedure room for a period of one hour prior to the initiation of the experiment. […] Serum LH levels were determined using radioimmunoas say kit from RIAZEN—Rat LH, Zentech (Liège, Belgium). […]

Another data set addresses human NK-2 receptor (Homo sapiens (Human), UniProt P21452). The data set is described as follows: Selectivity assay: [125I]-Neurokinin A binding to human NK-2 receptor. Conditions: CHO cell membranes, 0.1 nM [125I]-Neurokinin A; read-out: hNK-2 (Ki). As for the experimental part:
as §1
The affinity of compounds of the invention for the NK-2 receptor was evaluated in CHO recombinant cells which express the human NK-2 receptor. Membrane suspensions were prepared from these cells. The following radioligand [^125I]-Neurokinin A (PerkinElmer Cat#NEX252) was used in this assay. Binding assays were performed in a 25 mM HEPES/1 mM CaCl2/5 mM MgCl2/0.5% BSA/10 μg/ml saponin, at pH 7.4. Binding assays consisted of 25 μl of membrane suspension (approximately 3.75 μg of protein/well in a 96 well plate), 50 μl of compound or reference ligand (Neurokinin A) at increasing concentrations (diluted in assay buffer) and 0.1 nM [^125I]-Neurokinin A. The plate was incubated 60 min at 25° C. in a water bath and then filtered over GF/C filters (Perkin Elmer, 6005174, presoaked in assay buffer without saponine for 2 h at room temperature) with a Filtration unit (Perkin Elmer). The radioactivity retained on the filters was measured by using the TopCount-NXT reader (Packard).

The target in data set [2] is T1, human NK-3 receptor. The data set is described as follows: Aequorin functional assay with human NK-3 receptor (antagonist testing). Type of data set: cell-based. Conditions: CHO cells expressing human NK-3 receptor and apoaequorin; agonist NKA at EC80 (3 nM); read-out: hNK-3 - AEQ (antagonist IC50). As for the experimental part: Aequorin Assay with Human NK-3 Receptor
Changes in intracellular calcium levels are a recognized indicator of G protein-coupled receptor activity. The efficacy of compounds of the invention to inhibit NKA-mediated NK-3 receptor activation was assessed by an in vitro Aequorin functional assay. Chinese Hamster Ovary recombinant cells expressing the human NK-3 receptor and a construct that encodes the photoproteinapoaequorin were used for this assay. In the presence of the cofactor coelenterazine, apoaequorin emits a measurable luminescence that is proportional to the amount of intracellular (cytoplasmic) free calcium.
The antagonist activity of compounds of the invention is measured following pre-incubation (3 minutes) of the compound (at various concentrations) with the cells, followed by addition of the reference agonist (NKA) at a final concentration equivalent to the EC80 (3 nM) and recording of emitted light (FDSS 6000 Hamamatsu) over the subsequent 90-second period. The intensity of the emitted light is integrated using the reader software. Compound antagonist activity is measured based on the concentration-dependent inhibition of the luminescence response to the addition of Neurokinin A.
The IC50 values shown in table 2 indicate that compounds of the invention are potent NK-3 antagonist compounds.

Data set [3] is described as follows: Determination of plasma protein binding (rapid equilibrium dialysis). The class given is in vitro ADME. Conditions: bound drug fraction to plasma protein; equilibrium dialysis 4 hours at 37° C. An excerpt: Determination of Plasma Protein Binding
The pharmacokinetic and pharmacodynamic properties of chemicals/drugs are largely a function of the reversible binding of chemicals to plasma or serum proteins. […] Consequently, the extent of the plasma protein binding (PPB) of a compound influences its action as well as its distribution and elimination.
The determination of plasma protein binding (PPB) of a compound is enabled by equilibrium dialysis, an accepted and standard method for reliable estimation of the non-bound drug fraction in plasma. RED (Rapid Equilibrium Dialysis) device insert is made of two side-by-side chambers separated by an O-ring-sealed vertical cylinder of dialysis membrane (MWCO ˜8,000). […] After 4 hours incubation at 37° C. under shaking, an aliquot is removed from each chamber and analyzed by a LC-MS/MS procedure enables the determination of both free and bound drug.
The “free fraction” may be calculated as 100%−% rPPB (i.e. the complementary percentage of that disclosed in Table 4, corresponding to the drug concentration that is unbound and therefore available to engage biological target and elicit pharmacological activity).

In the next data set the target is hERG channel (Homo sapiens (Human), UniProt Q12809). The data set is described as follows: hERG inhibition assay (manual patch-clamp, HEK 293 cells). Type of data set: cell-based. The following applies: 5 minutes of exposure, read-out: CardioSafety (hERG IC50). As for the experimental part:
IKr current inhibition accounts for the vast majority of known cases of drug-induced QT-prolongation. […] Whole-cell currents (acquisition by manual patch-clamp) elicited during a voltage pulse were recorded in baseline conditions and following application of tested compounds (5 minutes of exposure). The concentrations of tested compounds (0.3 μM; 3 μM; 10 μM; 30 μM) reflect a range believed to exceed the concentrations at expected efficacy doses in preclinical models. […] The current density recorded were normalized against the baseline conditions and corrected for solvent effect and time-dependent current run-down using experimental design in test compound free conditions.
(hERG is a cardiac potassium channel; its block is linked to QT prolongation.)

human NK-1 receptor, sequence (P25103 whole entry): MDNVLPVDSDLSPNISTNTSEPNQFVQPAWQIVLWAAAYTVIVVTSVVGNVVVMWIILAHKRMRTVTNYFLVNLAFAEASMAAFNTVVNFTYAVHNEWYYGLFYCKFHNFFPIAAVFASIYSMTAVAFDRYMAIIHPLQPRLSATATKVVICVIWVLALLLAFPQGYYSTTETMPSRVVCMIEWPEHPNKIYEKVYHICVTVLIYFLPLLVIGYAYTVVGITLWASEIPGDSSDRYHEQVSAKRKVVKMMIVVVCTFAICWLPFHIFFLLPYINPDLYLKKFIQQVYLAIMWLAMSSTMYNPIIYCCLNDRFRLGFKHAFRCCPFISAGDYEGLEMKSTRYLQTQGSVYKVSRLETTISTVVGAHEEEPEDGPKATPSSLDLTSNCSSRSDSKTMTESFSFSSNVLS
T1 sequence (P29371 whole entry): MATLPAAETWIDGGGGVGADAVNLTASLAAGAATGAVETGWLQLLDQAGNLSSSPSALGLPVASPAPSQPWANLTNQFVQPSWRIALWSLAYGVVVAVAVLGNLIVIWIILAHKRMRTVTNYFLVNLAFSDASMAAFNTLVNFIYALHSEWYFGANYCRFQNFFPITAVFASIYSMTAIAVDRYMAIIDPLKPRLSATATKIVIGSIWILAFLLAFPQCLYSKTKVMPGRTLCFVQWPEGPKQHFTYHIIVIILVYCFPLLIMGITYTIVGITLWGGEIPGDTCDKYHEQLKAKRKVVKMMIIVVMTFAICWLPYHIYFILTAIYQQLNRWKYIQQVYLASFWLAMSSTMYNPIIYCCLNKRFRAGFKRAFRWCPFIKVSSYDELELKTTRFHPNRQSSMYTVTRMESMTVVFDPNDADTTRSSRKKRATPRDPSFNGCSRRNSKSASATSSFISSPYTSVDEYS
human NK-2 receptor, sequence (P21452 whole entry): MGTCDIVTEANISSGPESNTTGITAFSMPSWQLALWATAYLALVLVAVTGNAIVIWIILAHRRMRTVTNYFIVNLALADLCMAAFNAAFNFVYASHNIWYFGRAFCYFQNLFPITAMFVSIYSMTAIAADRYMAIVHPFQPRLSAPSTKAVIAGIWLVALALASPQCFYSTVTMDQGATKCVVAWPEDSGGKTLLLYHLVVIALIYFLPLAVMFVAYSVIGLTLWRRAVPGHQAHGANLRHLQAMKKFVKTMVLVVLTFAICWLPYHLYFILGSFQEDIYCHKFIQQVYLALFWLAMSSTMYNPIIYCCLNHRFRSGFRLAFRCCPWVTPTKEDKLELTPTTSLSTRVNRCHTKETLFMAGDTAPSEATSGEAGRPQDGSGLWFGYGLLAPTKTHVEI
hERG channel, sequence (Q12809 whole entry): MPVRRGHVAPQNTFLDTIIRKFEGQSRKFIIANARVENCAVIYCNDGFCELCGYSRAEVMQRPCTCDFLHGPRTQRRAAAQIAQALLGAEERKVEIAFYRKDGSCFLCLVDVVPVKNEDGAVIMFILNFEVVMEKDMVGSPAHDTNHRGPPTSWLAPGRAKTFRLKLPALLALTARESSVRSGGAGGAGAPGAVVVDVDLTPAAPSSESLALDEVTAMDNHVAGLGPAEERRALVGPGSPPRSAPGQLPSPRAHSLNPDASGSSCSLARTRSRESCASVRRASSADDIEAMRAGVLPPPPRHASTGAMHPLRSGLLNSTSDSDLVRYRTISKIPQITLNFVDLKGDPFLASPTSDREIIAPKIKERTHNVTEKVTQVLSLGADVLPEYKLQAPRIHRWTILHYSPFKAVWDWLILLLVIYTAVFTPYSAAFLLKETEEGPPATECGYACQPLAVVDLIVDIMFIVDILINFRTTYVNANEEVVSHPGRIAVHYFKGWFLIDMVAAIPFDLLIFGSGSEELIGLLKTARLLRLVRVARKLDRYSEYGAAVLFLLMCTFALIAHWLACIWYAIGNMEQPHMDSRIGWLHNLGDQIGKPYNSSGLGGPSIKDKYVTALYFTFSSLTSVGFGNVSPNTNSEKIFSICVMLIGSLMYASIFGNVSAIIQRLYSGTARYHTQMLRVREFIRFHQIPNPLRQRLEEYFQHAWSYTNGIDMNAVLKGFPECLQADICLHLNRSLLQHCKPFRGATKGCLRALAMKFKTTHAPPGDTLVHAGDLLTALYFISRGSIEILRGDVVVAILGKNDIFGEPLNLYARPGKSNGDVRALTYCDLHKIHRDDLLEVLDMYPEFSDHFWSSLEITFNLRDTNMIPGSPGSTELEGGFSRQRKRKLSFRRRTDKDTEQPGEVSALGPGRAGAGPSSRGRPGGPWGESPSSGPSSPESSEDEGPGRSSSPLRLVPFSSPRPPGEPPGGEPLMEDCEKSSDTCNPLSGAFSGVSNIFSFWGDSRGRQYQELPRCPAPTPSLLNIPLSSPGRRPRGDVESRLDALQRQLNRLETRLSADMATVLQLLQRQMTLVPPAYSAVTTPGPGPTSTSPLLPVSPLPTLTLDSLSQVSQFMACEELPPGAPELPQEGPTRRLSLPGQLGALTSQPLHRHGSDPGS

One may read the Ki as the dissociation constant of the complex between target and ligand, obtained from inhibition or displacement. The term IC50 denotes the concentration that inhibits the measured activity by half. As to `Cc1nsc(-c2nnc3n2CCN(C(=O)c2ccc(F)cc2)C3)n1` [Compound 1, (4-fluorophenyl)(3-(3-methyl-1,2,4-thiadiazol-5-yl)-5,6-dihydro-[1,2,4]triazolo[4,3-a]pyrazin-7(8H)-yl)methanone], the Ki on human NK-1 receptor is > 30000 nM; at human NK-3 receptor [1] it was 140 nM; at human NK-2 receptor, > 30000 nM. In the data set with circulating LH levels, the “suppression of circulating LH levels” value is given as “significantly suppressed circulating LH levels”. Also, the IC50 on human NK-3 receptor [2] was 180 nM.
With `Cc1nsc(-c2nnc3n2CCN(C(=O)c2ccc(Cl)cc2)C3)n1` [Compound 2, (4-chlorophenyl)(3-(3-methyl-1,2,4-thiadiazol-5-yl)-5,6-dihydro-[1,2,4]triazol[4,3-a]pyrazin-7(8H)-yl)methanone], the Ki on human NK-1 receptor is > 30000 nM; on human NK-3 receptor [1] it was 99 nM; on human NK-2 receptor it was > 30000 nM. Also, in data set [3], the “Exposure (% rPPB)” value is listed as 49%. Further, the figures for the IC50 on hERG channel and on human NK-3 receptor [2] were 35000 nM and 140 nM, respectively.
In the case of `Cc1nsc(-c2nnc3n2CCN(C(=O)c2ccc(Cl)c(F)c2)C3)n1` [Compound 3, (4-chloro-3-fluorophenyl)(3-(3-methyl-1,2,4-thiadiazol-5-yl)-5,6-dihydro-[1,2,4]triazol[4,3-a]pyrazin-7(8H)-yl)methanone], the Ki was > 30000 nM on human NK-1 receptor, 93 nM on human NK-3 receptor [1] and > 30000 nM on human NK-2 receptor. Besides, in data set [3], the “Exposure (% rPPB)” value came out at 54%. The IC50 at human NK-3 receptor [2] is 140 nM.
As for `Cc1nsc(-c2nnc3n2CCN(C(=O)c2ccc(F)c(Cl)c2)C3)n1` [Compound 4, (3-chloro-4-fluorophenyl)(3-(3-methyl-1,2,4-thiadiazol-5-yl)-5,6-dihydro-[1,2,4]triazol[4,3-a]pyrazin-7(8H)-yl)methanone], the Ki on human NK-1 receptor is > 30000 nM; at human NK-3 receptor [1], 130 nM; on human NK-2 receptor, > 30000 nM. In data set [3], the “Exposure (% rPPB)” value is given as 52%. In addition, the IC50 at human NK-3 receptor [2] came to 200 nM.
Turning to `Cc1nsc(-c2nnc3n2CCN(C(=O)c2ccc(F)c(F)c2)C3)n1` [Compound 5, (3,4-difluorophenyl)(3-(3-methyl-1,2,4-thiadiazol-5-yl)-5,6-dihydro-[1,2,4]triazol[4,3-a]pyrazin-7(8H)-yl)methanone], the Ki at human NK-1 receptor was > 30000 nM; on human NK-3 receptor [1], 170 nM; on human NK-2 receptor it was > 30000 nM. In addition, the “Exposure (% rPPB)” value in data set [3] was determined as 28%. Further, the IC50 on human NK-3 receptor [2] amounted to 250 nM.
As to `Cc1nsc(-c2nnc3n2CCN(C(=O)c2cc(F)c(F)c(F)c2)C3)n1` [Compound 6, (3-(3-methyl-1,2,4-thiadiazol-5-yl)-5,6-dihydro-[1,2,4]triazolo[4,3-a]pyrazin-7(8H)-yl)(3,4,5-trifluorophenyl)methanone], the inhibition constant (Ki) at human NK-1 receptor was > 30000 nM; on human NK-3 receptor [1], 170 nM; on human NK-2 receptor it was > 30000 nM. Moreover, in data set [3], the “Exposure (% rPPB)” value is on record as 27%. For the same compound, on human NK-3 receptor [2], the IC50 amounted to 330 nM.
`Cc1nsc(-c2nnc3n2CCN(C(=O)c2ccc(F)c(F)c2F)C3)n1` [Compound 7, (3-(3-methyl-1,2,4-thiadiazol-5-yl)-5,6-dihydro-[1,2,4]triazolo[4,3-a]pyrazin-7(8H)-yl)(2,3,4-trifluorophenyl)methanone]: the Ki at human NK-1 receptor was > 30000 nM; at human NK-3 receptor [1], 240 nM; on human NK-2 receptor, > 30000 nM. Moreover, the “Exposure (% rPPB)” value in data set [3] worked out at 25%. Further, at human NK-3 receptor [2], the IC50 was found to be 470 nM.
